The source of these data is ChEMBL document CHEMBL1123301, “Structure-activity study of 6-substituted 2-pyranones as inactivators of alpha-chymotrypsin” (J Med Chem, 1986).

Test [1] deals with Chymotrypsinogen A (Bos taurus) (UniProt P00766).
Test [2] shares this target. This is another data set of the same source.
Test [3] has the same target. The source holds these as a separate data set.
Test [4] has the same target. Briefly: Binding affinity towards alpha-chymotrypsin from bovine pancreas; The compound was too insoluble to obtain reliable data.
The nature of test [5]: Binding affinity towards alpha-chymotrypsin from bovine pancreas. Set-up: species or system Bos taurus.

As to `O=c1oc(Cl)ccc1-c1ccccc1`, the K inact entry in test [1] was “No inactivation”.

Turning to `CCc1ccc(=O)oc1Cl`, in test [2], the K inact came to 0.00551 min⁻¹.

Consider `O=c1ccc(-c2ccccc2)c(Cl)o1`, for which the K inact entry in test [1] was “No inactivation”.

As to `O=c1oc(Br)ccc1Cc1ccc2ccccc2c1`, the kinact in test [3] came out at 0.0239 min⁻¹. Besides, the Ki entry in test [4] was “The compound was too insoluble to obtain reliable data”.

Consider `CCCCc1ccc(=O)oc1Cl`, for which the K inact in test [2] amounted to 0.00217 min⁻¹.

As to `O=c1ccc(-c2ccccc2)co1`, the K inact entry in test [1] is “No inactivation”.

For `O=c1occcc1-c1ccccc1`, the Ki in test [5] came to 160 µM. Also, the K inact result in test [1] was “No inactivation”.
